Measurements published in ChEMBL document CHEMBL3885881, “DrugMatrix”.

Organism: Rattus norvegicus
Assay type: toxicity, organism-based, Sprague-Dawley
Details: in vivo, po, route oral GAVAGE, […]; for ABSOLUTE EOSINOPHIL / ABSOLUTE LYMPHOCYTE / ABSOLUTE MONOCYTE / ABSOLUTE SEGMENTED NEUTROPHIL / BASOPHIL / EOSINOPHIL / ERYTHROCYTE COUNT / HEMATOCRIT / HEMOGLOBIN / LEUKOCYTE COUNT / LYMPHOCYTE / MEAN CORPUSCULAR HEMOGLOBIN / MEAN CORPUSCULAR HEMOGLOBIN CONCENTRATION / MEAN CORPUSCULAR VOLUME / MONOCYTE / NEUTROPHIL / NUCLEATED RED BLOOD CELLS / PLATELET COUNT: tissue Blood; for ALANINE AMINOTRANSFERASE / ALKALINE PHOSPHATASE / ASPARTATE AMINOTRANSFERASE / BLOOD UREA NITROGEN / CARBON DIOXIDE / CHLORIDE / CHOLESTEROL / CREATINE PHOSPHOKINASE / CREATININE / GLUCOSE / LACTATE DEHYDROGENASE / LIPASE / PHOSPHORUS / POTASSIUM / SODIUM / TOTAL BILIRUBIN / TOTAL PROTEIN / URIC ACID: tissue Plasma
[1] = 0 mg/kg, 6 h, vehicle control, dose level Control, time 0.25 day
[2] = 0 mg/kg, 24 h, vehicle control, dose level Control, time 1 day
[3] = 100 mg/kg, 6 h, dose level Low, time 0.25 day

Description: DrugMatrix - Regimen: Single

In the case of Cc1ccc(C)c(OCCCC(C)(C)C(=O)O)c1 [GEMFIBROZIL], the “ABSOLUTE EOSINOPHIL” value [1] is reported as 0 CELLS/uL, the “ABSOLUTE LYMPHOCYTE” value [1] is reported as 8631 CELLS/uL and the “ABSOLUTE MONOCYTE” value [1] is reported as 171.17 CELLS/uL. The “ABSOLUTE SEGMENTED NEUTROPHIL” value [1] was 1214.5 CELLS/uL, the BASOPHIL [1] was 0% and the EOSINOPHIL [1] was 0%. For the same compound, the “ERYTHROCYTE COUNT” value [1] was 5.42 x10E6/uL, the HEMATOCRIT [1] was 34.7% and the HEMOGLOBIN [1] was 13.67 G/DL. For the same compound, the “LEUKOCYTE COUNT” value [1] was 10.02 x10E3/uL, the LYMPHOCYTE [1] was 86.17% and the “MEAN CORPUSCULAR HEMOGLOBIN” value [1] was 25.27 pg. For the same compound, the “MEAN CORPUSCULAR HEMOGLOBIN CONCENTRATION” value [1] was 39.42 G/DL, the “MEAN CORPUSCULAR VOLUME” value [1] was 64.12 fL and the MONOCYTE [1] was 1.67%. The NEUTROPHIL [1] was 12.17%, the “NUCLEATED RED BLOOD CELLS” value [1] was 0 /100WBC and the “PLATELET COUNT” value [1] was 1050 x10E3/uL. For the same compound, the “ALANINE AMINOTRANSFERASE” value [1] was 61 u/L, the “ALKALINE PHOSPHATASE” value [1] was 312.5 u/L and the “ASPARTATE AMINOTRANSFERASE” value [1] was 117.5 u/L. For the same compound, the “BLOOD UREA NITROGEN” value [1] was 8.67 mg/dL, the “CARBON DIOXIDE” value [1] was 26.33 mmol/L and the CHLORIDE [1] was 100.5 MEQ/L. The CHOLESTEROL [1] was 72 mg/dL, the “CREATINE PHOSPHOKINASE” value [1] was 283.33 u/L and the CREATININE [1] was 0.28 mg/dL. The GLUCOSE [1] was 172 mg/dL, the “LACTATE DEHYDROGENASE” value [1] was 95.33 u/L and the LIPASE [1] was 10.17 u/L. The PHOSPHORUS [1] was 9.9 mg/dL, the POTASSIUM [1] was 5.75 MEQ/L and the SODIUM [1] was 142.4 MEQ/L. For the same compound, the “TOTAL BILIRUBIN” value [1] was 0.3 mg/dL, the “TOTAL PROTEIN” value [1] was 5.43 G/DL and the “URIC ACID” value [1] was 0.73 mg/dL. For the same compound, the “ABSOLUTE EOSINOPHIL” value [2] was 90.83 CELLS/uL, the “ABSOLUTE LYMPHOCYTE” value [2] was 14725.17 CELLS/uL and the “ABSOLUTE MONOCYTE” value [2] was 220 CELLS/uL. For the same compound, the “ABSOLUTE SEGMENTED NEUTROPHIL” value [2] was 1080.67 CELLS/uL, the BASOPHIL [2] was 0% and the EOSINOPHIL [2] was 0.67%. The “ERYTHROCYTE COUNT” value [2] was 5.3 x10E6/uL, the HEMATOCRIT [2] was 33.4% and the HEMOGLOBIN [2] was 13.4 G/DL. The “LEUKOCYTE COUNT” value [2] was 16.12 x10E3/uL, the LYMPHOCYTE [2] was 91.17% and the “MEAN CORPUSCULAR HEMOGLOBIN” value [2] was 25.3 pg. For the same compound, the “MEAN CORPUSCULAR HEMOGLOBIN CONCENTRATION” value [2] was 40.12 G/DL, the “MEAN CORPUSCULAR VOLUME” value [2] was 63.05 fL and the MONOCYTE [2] was 1.5%. The NEUTROPHIL [2] was 6.67%, the “NUCLEATED RED BLOOD CELLS” value [2] was 0 /100WBC and the “PLATELET COUNT” value [2] was 1062 x10E3/uL. The “ALANINE AMINOTRANSFERASE” value [2] was 69 u/L, the “ALKALINE PHOSPHATASE” value [2] was 269 u/L and the “ASPARTATE AMINOTRANSFERASE” value [2] was 83.67 u/L. For the same compound, the “BLOOD UREA NITROGEN” value [2] was 14 mg/dL, the “CARBON DIOXIDE” value [2] was 29 mmol/L and the CHLORIDE [2] was 100.83 MEQ/L. The CHOLESTEROL [2] was 66.67 mg/dL, the “CREATINE PHOSPHOKINASE” value [2] was 355 u/L and the CREATININE [2] was 0.18 mg/dL. The GLUCOSE [2] was 161.33 mg/dL, the “LACTATE DEHYDROGENASE” value [2] was 123.33 u/L and the LIPASE [2] was 10.67 u/L. The PHOSPHORUS [2] was 8.83 mg/dL, the POTASSIUM [2] was 6.06 MEQ/L and the SODIUM [2] was 142.45 MEQ/L. For the same compound, the “TOTAL BILIRUBIN” value [2] was 0.2 mg/dL, the “TOTAL PROTEIN” value [2] was 5.72 G/DL and the “URIC ACID” value [2] was 1.27 mg/dL. For the same compound, the “ABSOLUTE EOSINOPHIL” value [3] was 97 CELLS/uL, the “ABSOLUTE LYMPHOCYTE” value [3] was 13743.17 CELLS/uL and the “ABSOLUTE MONOCYTE” value [3] was 354.83 CELLS/uL. The “ABSOLUTE SEGMENTED NEUTROPHIL” value [3] was 1355 CELLS/uL, the BASOPHIL [3] was 0% and the EOSINOPHIL [3] was 0.67%. For the same compound, the “ERYTHROCYTE COUNT” value [3] was 5.46 x10E6/uL, the HEMATOCRIT [3] was 35.92% and the HEMOGLOBIN [3] was 13.93 G/DL. For the same compound, the “LEUKOCYTE COUNT” value [3] was 15.55 x10E3/uL, the LYMPHOCYTE [3] was 88.33% and the “MEAN CORPUSCULAR HEMOGLOBIN” value [3] was 25.62 pg. The “MEAN CORPUSCULAR HEMOGLOBIN CONCENTRATION” value [3] was 38.85 G/DL, the “MEAN CORPUSCULAR VOLUME” value [3] was 65.98 fL and the MONOCYTE [3] was 2.17%. The NEUTROPHIL [3] was 8.83%, the “NUCLEATED RED BLOOD CELLS” value [3] was 0 /100WBC and the “PLATELET COUNT” value [3] was 1082.83 x10E3/uL. For the same compound, the “ALANINE AMINOTRANSFERASE” value [3] was 47.5 u/L, the “ALKALINE PHOSPHATASE” value [3] was 284.67 u/L and the “ASPARTATE AMINOTRANSFERASE” value [3] was 80.83 u/L. For the same compound, the “BLOOD UREA NITROGEN” value [3] was 8 mg/dL, the “CARBON DIOXIDE” value [3] was 26.67 mmol/L and the CHLORIDE [3] was 100.17 MEQ/L. The CHOLESTEROL [3] was 76 mg/dL, the “CREATINE PHOSPHOKINASE” value [3] was 275.33 u/L and the CREATININE [3] was 0.13 mg/dL. For the same compound, the GLUCOSE [3] was 141.33 mg/dL, the “LACTATE DEHYDROGENASE” value [3] was 112.33 u/L and the LIPASE [3] was 11 u/L. It also gave a PHOSPHORUS [3] of 11.7 mg/dL, a POTASSIUM [3] of 6.32 MEQ/L and an SODIUM [3] of 141.92 MEQ/L. The “TOTAL BILIRUBIN” value [3] was 0.37 mg/dL, the “TOTAL PROTEIN” value [3] was 5.85 G/DL and the “URIC ACID” value [3] was 1.2 mg/dL.
